According to ChEMBL document CHEMBL1201862, “PubChem BioAssay data set” (2004):
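Grown in 96-well plates, cells were treated for 48 hours with each compound at five concentrations. Insufficient inhibition: endpoint recorded as highest concentration tested. GI50 marks 50% less growth.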 Activity calls are given as the source filed them. Rule as the data show it: active = GI50 up to about 1.1 µM and inactive = higher.

How the values were obtained:
Assay in all cases: NCI tumour cell line growth inhibition, 48 h
OVCAR-4 = test system: OVCAR-4
SR = test system: SR
CAKI-1 = test system: CAKI-1
NCI-H522 = test system: NCI-H522
A549 = test system: A549
EKVX = test system: EKVX
NCI-H460 = test system: NCI-H460
M14 = test system: M14
HCT-15 = test system: HCT-15
SF-539 = test system: SF-539
OVCAR-3 = test system: OVCAR-3
MDA-MB-231 = test system: MDA-MB-231
COLO 205 = test system: COLO 205
SK-MEL-28 = test system: SK-MEL-28
SK-OV-3 = test system: SK-OV-3
OVCAR-8 = test system: OVCAR-8
U-251 = test system: U-251
MDA-MB-435 = test system: MDA-MB-435
TK-10 = test system: TK-10
RXF 393 = test system: RXF 393
HOP-62 = test system: HOP-62
UACC-257 = test system: UACC-257
SW-620 = test system: SW-620
NCI-H226 = test system: NCI-H226
SNB-75 = test system: SNB-75
Hs-578T = test system: Hs-578T
OVCAR-5 = test system: OVCAR-5
LOX IMVI = test system: LOX IMVI
ACHN = test system: ACHN
SK-MEL-5 = test system: SK-MEL-5
MDA-N = test system: MDA-N
786-0 = test system: 786-0
UO-31 = test system: UO-31
UACC-62 = test system: UACC-62
HCT-116 = test system: HCT-116
MOLT-4 = test system: MOLT-4
IGROV-1 = test system: IGROV-1
KM12 = test system: KM12
K562 = test system: K562
SN12C = test system: SN12C
SNB-19 = test system: SNB-19
T47D = test system: T47D
SF-295 = test system: SF-295
RPMI-8226 = test system: RPMI-8226
HCC 2998 = test system: HCC 2998
A498 = test system: A498
PC-3 = test system: PC-3
CCRF-CEM = test system: CCRF-CEM
NCI/ADR-RES = test system: NCI/ADR-RES
BT-549 = test system: BT-549
HT-29 = test system: HT-29
HOP-92 = test system: HOP-92
DU-145 = test system: DU-145
HL-60 = test system: HL-60
MCF7 = test system: MCF7
SK-MEL-2 = test system: SK-MEL-2
Malme-3M = test system: Malme-3M
SF-268 = test system: SF-268
NCI-H23 = test system: NCI-H23

Measured: GI50

CCCC[C@H]1C(=O)O[C@H](C)[C@H](NC(=O)c2cccc(NC=O)c2O)C(=O)O[C@@H](C)[C@@H]1OC(=O)CC(C)C [ANTIMYCIN A3]
< 0.01 µM: HCT-15
inactive: OVCAR-4 2.37 µM | CAKI-1 11.9 µM | NCI-H522 5.93 µM | M14 14.9 µM | SF-539 12.8 µM | OVCAR-3 2.38 µM | MDA-MB-231 4.37 µM | COLO 205 3.34 µM | SK-MEL-28 6.73 µM | SK-OV-3 12 µM | OVCAR-8 2.05 µM | TK-10 6.79 µM | RXF 393 6.49 µM | HOP-62 8.41 µM | SW-620 8.18 µM | SNB-75 21.4 µM | Hs-578T 13 µM | OVCAR-5 17 µM | ACHN 1.15 µM | MDA-N 2.43 µM | 786-0 9.08 µM | UO-31 4.94 µM | IGROV-1 3.94 µM | SN12C 14.2 µM | SNB-19 2.91 µM | T47D 2.19 µM | HCC 2998 10.9 µM | A498 4.23 µM | NCI/ADR-RES 5.32 µM | BT-549 1.68 µM | HT-29 1.6 µM | HOP-92 5.36 µM | DU-145 3.55 µM | SK-MEL-2 1.97 µM | Malme-3M 7.28 µM | SF-268 6.56 µM
active: SR < 0.0347 µM | A549 0.0441 µM | EKVX 0.321 µM | NCI-H460 < 0.01 µM | U-251 0.149 µM | MDA-MB-435 1.11 µM | UACC-257 0.04 µM | NCI-H226 0.883 µM | LOX IMVI < 0.01 µM | SK-MEL-5 < 0.01 µM | UACC-62 0.16 µM | HCT-116 < 0.01 µM | MOLT-4 < 0.01 µM | KM12 0.444 µM | K562 < 0.0123 µM | SF-295 < 0.0421 µM | RPMI-8226 0.109 µM | PC-3 0.278 µM | CCRF-CEM < 0.0229 µM | HL-60 0.0968 µM | MCF7 0.0442 µM | NCI-H23 0.294 µM

O=C(NCCCNCCCCNCCCNC(=O)c1cc(-c2ccccc2)nc2ccccc12)c1cc(-c2ccccc2)nc2ccccc12
20.1 µM: HCT-15
inactive: OVCAR-4 2.64 µM | SR 1.97 µM | CAKI-1 20.3 µM | NCI-H522 2.01 µM | A549 2.12 µM | EKVX 5.18 µM | NCI-H460 2.32 µM | M14 2.15 µM | SF-539 1.9 µM | OVCAR-3 2.66 µM | MDA-MB-231 7.06 µM | COLO 205 1.91 µM | SK-MEL-28 1.87 µM | SK-OV-3 2.27 µM | OVCAR-8 1.82 µM | U-251 1.66 µM | MDA-MB-435 1.8 µM | TK-10 8.07 µM | RXF 393 3.69 µM | HOP-62 2.36 µM | UACC-257 3.74 µM | SW-620 2.62 µM | NCI-H226 1.83 µM | SNB-75 1.85 µM | Hs-578T 1.75 µM | OVCAR-5 2.05 µM | LOX IMVI 1.64 µM | ACHN 18.5 µM | SK-MEL-5 2.61 µM | MDA-N 1.77 µM | 786-0 1.69 µM | UO-31 20.9 µM | UACC-62 2.16 µM | HCT-116 3.09 µM | MOLT-4 1.9 µM | IGROV-1 2.16 µM | KM12 2.19 µM | K562 2.14 µM | SN12C 2.23 µM | SNB-19 1.67 µM | T47D 2.63 µM | SF-295 3.26 µM | RPMI-8226 2.16 µM | HCC 2998 2.01 µM | A498 20.7 µM | PC-3 2.12 µM | CCRF-CEM 1.88 µM | NCI/ADR-RES 28.4 µM | BT-549 3.13 µM | HT-29 1.91 µM | HOP-92 1.48 µM | DU-145 17.6 µM | HL-60 1.79 µM | MCF7 2.1 µM | SK-MEL-2 1.62 µM | Malme-3M 1.95 µM | SF-268 1.71 µM | NCI-H23 3 µM
